Five compounds from patent publication US20250134860A1, “NOVEL COMPOUND, AND COMPOSITION FOR PREVENTING, ALLEVIATING OR TREATING BACTERIAL INFLAMMATION AND INFLAMMASOME-MEDIATED DISEASES, COMPRISING SAME AS ACTIVE INGREDIENT” (Quorum Bio Co., Ltd., priority 2022, published 2025) can be followed below.

The test system of data set [1] is P. gingivalis. Nature of the data set: Inhibitory effect on P. gingivalis biofilm formation (crystal violet, OD590nm). It is filed as cell-based, Porphyromonas gingivalis. The note with it: 48 hours; for biofilm formation of P. gingivalis increased by DPD: DPD 10 μM + compound 0.002, 0.02, 0.2, 2 μM, anaerobic, OD590nm.
In data set [2] the test system is gingipain genes (rgpA, rgpB, kgp). Nature of the data set: Inhibitory effect on gingipain expression of P. gingivalis (RT-qPCR). It is filed as cell-based, Porphyromonas gingivalis. The note with it: 48 hours. On the procedure:
The compounds of Examples were respectively treated onto the medium cultured with P. gingivalis, and the expression levels of three gingipain proteins (lysine-gingipain (Kgp), arginine-gingipain A (RgpA), and arginine-gingipain B (RgpB)) produced by P. gingivalis, which are major virulence factors and proteolytic enzymes, were confirmed.
The culture medium containing 10 μM of DPD (4,5-dihydroxy-2,3-pentane dione), which is a precursor of the bacterial signal substance (Autoinducer-2), and the culture medium containing 2 μM of the example compound or not were respectively dispensed into a cell culture plate (48 well plate), and then P. gingivalis (2×10^8 cell/ml) were inoculated for each group. The culture medium cultured with bacteria was cultured at 37° C. under anaerobic conditions (10% H2, 10% CO2, and 80% N2) for 48 hours.
After 48 hours, each culture medium was centrifuged at 13,000 rpm for 1 minute to remove the supernatant, and total RNA was extracted using easy-BLUE™ Total RNA Extraction kit (iNtRON Biotechnology, Sungnam, Korea) to synthesize cDNA, and then the expression of the gingipain gene was confirmed by real-time PCR method. cDNA was synthesized using AccuPower® CycleScript RT PreMix dN6 (Bioneer, Daejeon, Korea), and real-time (quantitative) reverse transcription PCR (RT-qPCR) was carried out using Power SYBR™ Green PCR Master Mix (Applied Biosystems, Foster City, CA, USA).
RT-qPCR amplification conditions were as follows: after enzyme activation at 95° C. for 3 minutes, denaturation at 95° C. for 10 seconds and primer annealing at 60° C. for 30 seconds were repeated 40 times, and analysis was performed using a Bio-Rad CFX Connect Real-Time PCR Detection System (Bio-Rad, Hercules, CA, USA). To normalize the expression level of the gingipain gene, the 16s rRNA gene was used, and the gene expression level was calculated using the Comparative Ct Method (ΔΔCt), which is shown in FIGS. 5a to 5c.
Background: In qPCR the cycle at which signal appears reflects the starting amount.

Data set [3] can be described thus: Plasma stability in rat plasma (LC-MS/MS). It counts as in vitro ADME. The note with it: 37° C., 0, 30, 60, 120, 240 minutes. As to the method:
(§1) The compounds of Examples 1-2 and Comparative Example, and the substance used as the positive control (Eucatropine, Loterpresnol) were dissolved in DMSO to prepare a stock solution having a concentration of 10 mM. The stock solution of each test substance was then diluted to prepare 0.2 mM and 1 mM working solutions and used for the test (For the comparative example compound, 70% acetonitrile was used as a solvent, and for the compound of Example 1-2, 50% acetonitrile was used as a solvent).
(§2) The positive control and the standard solution of the test substance were placed in tubes containing two types of plasma (human and rat) at concentrations of 1 μM and 5 μM, respectively, and then incubated at 37° C. for a prescribed time (0, 30, 60, 120, 240 minutes) while shaking and mixing. At each time point, the mixture sample was dispensed in 100 μl increments into a cell culture plate (96-well plate) containing 400 μl of quench reagent to terminate the test, After centrifugation (5000×g, 10 min), 100 μl of the supernatant was taken out, mixed with 200 μl of ultrapure water, and the solution was then injected into a LC-MS/MS system to analyze the drug in each time zone. Thereby, the plasma stability of the compounds of Comparative Example and Example 1-2 was evaluated.

Data set [4] is described as follows: Plasma stability in human plasma (LC-MS/MS). The note with it: 37° C., 0, 30, 60, 120, 240 minutes. It counts as in vitro ADME. On the procedure:
as §1, §2

Data set [5] is described as follows: General symptoms and body weight in the rat micronucleus study. The note with it: positive control 20 mg/kg/day P.O. It is filed as in vivo. As to the method:
In addition, body weight was measured on the day of administration start and bone marrow collection to confirm presence/absence of changes due to administration of the substance, and the results are shown in Table 4 below.

Data set [6] has as its system Sprague-Dawley rat bone marrow cells. Description: Rat micronucleus test. The note with it: positive control 20 mg/kg/day P.O., 24 hours after dosing. As to the method:
Hair was removed from the administration site (subcutaneous) of the SD rats, the administration concentration of the example compounds were set to a low dose (500 mg/kg/day), a medium dose (1000 mg/kg/day), and a high dose (2000 mg/kg/day), and administered subcutaneously to the left and right […] of the test system (10 ml/kg/day each), and the compound was administered subcutaneously in divided doses to the left and right […] of the test system (10 ml/kg/day each).
24 hours after the second administration of the test substance, the femur was removed from each group to collect bone marrow cells. 0.5 mL of 10% neutral formalin was added to the bone marrow cell suspension, fixed for 5 minutes, centrifuged for 5 minutes (4° C., 1,000 rpm, Micro17TR, Hanil Science Industrial, Republic of Korea) to remove the supernatant. Then, 0.3 mL of 10% neutral formalin was added to the precipitated bone marrow cells, suspended, filtered through a cell strain, and transferred to a storage tube. The fixed bone marrow cell suspension was dropped onto a cover glass, and then covered with a slide glass coated with 20 μL of 0.05% acridine orange to prepare an observation slide. The observation slide was observed under a microscope (600× magnification, BX51, Olympus, Japan).
As an indicator of bone marrow cell proliferation inhibition, 500 total red blood cells per individual were observed, and the ratio of polychromatic red blood cells to total red blood cells (PCE/(PCE+NCE)) was calculated. As a positive control, cyclophosphamide (Cas No: 50-18-0) was administered at a dose of 20 mg/kg/day.

Values joined by “and” are separate entries in the source; they are usually repeats but may differ in a detail not shown here. Identical values can stand only once.

Consider `COc1ccc(C(=C2c3ccccc3C(=O)N2C)c2ccc(OC)cc2)cc1` [Example 1-3, 3-(bis(4-methoxyphenyl)methylene)-2-methylisoindolin-1-one], for which the “biofilm formation of P. gingivalis increased by DPD” value in data set [1] is recorded as “inhibited in a concentration-dependent manner”.

As for `CC(=O)C(=O)C(O)CO` (stereo not shown) [DPD, 4,5-dihydroxy-2,3-pentanedione, reference compound], in data set [2] (DPD 10 μM alone compared with untreated control), the “expression levels of three gingipain genes (rgpA, rgpB, kgp)” value was “increased more than in the control group”. In data set [1] (DPD 10 μM alone compared to medium with PBS (CT)), the “biofilm formation of P. gingivalis” value is “significantly increased”.

Turning to `CN1C(=O)c2ccccc2C1=C(c1ccccc1)c1ccccc1` [Example 1-1, 3-(diphenylmethylene)-2-methylisoindolin-1-one], the “expression levels of three gingipain genes (rgpA, rgpB, kgp) increased by DPD” value in data set [2] (DPD 10 μM + compound 2 μM, normalized to 16s rRNA) is reported as “reduced”. Further, in data set [1], the “biofilm formation of P. gingivalis increased by DPD” value is “inhibited in a concentration-dependent manner”.

For `O=C1O/C(=C(\Br)c2ccccc2)c2ccccc21` [Comparative Example, (Z)-3-(bromo (phenyl)methylene) isobenzofuran-1 (3H)-one, reference compound], the “amount of the compound remaining in the plasma” value in data set [3] and in data set [4] was “decreased over time” each time. The “biofilm formation of P. gingivalis increased by DPD” value in data set [1] was “inhibited in a concentration-dependent manner”.

As for `O=P1(N(CCCl)CCCl)NCCCO1` (stereo not shown) [CPA, cyclophosphamide], the “Body weight (g) 1 day after 2nd dosing, Mean” value in data set [5] (administered once, group mean) is on record as 278.9 g. The “Body weight (g) 1 day after 2nd dosing” value in data set [5] (administered once, individual animals 1501-1505) is 279.4 g and 281.5 g. Further, the “Body weight (g) before 1st dosing, Mean” value in data set [5] (group mean) was 266.8 g. Also, the “Body weight (g) before 1st dosing” value in data set [5] (individual animals 1501-1505) turned out to be 282.2 g. Also, in data set [6] (group mean), the “MNPCE/PCE, %(Mean)” value is recorded as 3.060% and the “PCE/(PCE+NCE), %(Mean)” value is on record as 33.5%. The “PCE/(PCE+NCE): PCE count” value in data set [6] (individual animals, per 500 total red blood cells) is 166 and 170. Besides, in data set [6] (individual animals, per 4,000 PCE), the “MNPCE/PCE: MNPCE count” value is 150 and 154 and 167 (2×).
